Reference: the supplement of paper PMC11451515

Tests used:
Conditions in all cases: 48 h
SEM cells [1] = assay: cell viability relative to DMSO control; higher = less cytotoxic
Summary of the method: (§1)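 Cells were incubated for 48 h at 37°C before CellTiter-Glo One luminescence was read. The cells were NOMO1 or SEM (500 cells/well) or P12-Ichikawa (1000 cells/well) leukemia cells, adapted for at least four passages in each medium and seeded in 1536-well plates (5 μl). Dosing used library compounds in DMSO applied by pin over 11 threefold points, 47 μM to 0.79 nM. Viability is the per-plate percentage of DMSO wells, with cell-free wells as background.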

NOMO1 [2] = assay: as above
Summary of the method: as §1

P12-Ichikawa [3] = assay: as above
Summary of the method: as §1

SEM cells [4] = assay: AUC of viability dose-response curve (% viability x log10 dose units); higher = less sensitive
Summary of the method: (§2)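 Medium-adapted leukemia cells in 1536-well plates, at 500 or 1000 cells/well, were incubated for 48 h at 37°C with library compounds in DMSO at 11 threefold doses from 47 μM to 0.79 nM. CellTiter-Glo One luminescence normalised per plate to DMSO and cell-free wells was fitted with a four-parameter log-logistic model over log10 doses. Area under the curve was integrated from this fit by trapezoidal rule, with curves beyond full viability scaled and failed quality-control curves removed.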

NOMO1 [5] = assay: as above
Summary of the method: as §2

P12-Ichikawa [6] = assay: as above
Summary of the method: as §2

CC(C)N(CCCNC(=O)Nc1ccc(C(C)(C)C)cc1)C[C@H]1O[C@@H](n2cc(Br)c3c(N)ncnc32)[C@H](O)[C@@H]1O
cell viability [%]
Conditions | NOMO1 [2] | P12-Ichikawa [3] | SEM cells [1]
HPLM + 10% dialyzed FBS, 0.000781 µM | 98.3 | 85.8 | 87.3
HPLM + 10% dialyzed FBS, 0.00234 µM | 101 | 89.9 | 99.8
HPLM + 10% dialyzed FBS, 0.00702 µM | 112 | 92.2 | 96.6
HPLM + 10% dialyzed FBS, 0.0211 µM | 84.5 | 93 | 98.8
HPLM + 10% dialyzed FBS, 0.0632 µM | 105 | 97 | 105
HPLM + 10% dialyzed FBS, 0.19 µM | 106 | 94 | 101
HPLM + 10% dialyzed FBS, 0.569 µM | 110 | 97.9 | 85.1
HPLM + 10% dialyzed FBS, 1.71 µM | 95.1 | 88 | 98.4
HPLM + 10% dialyzed FBS, 5.12 µM | 85.4 | 81.4 | 104
HPLM + 10% dialyzed FBS, 15.4 µM | 71.4 | 77.8 | 72.4
HPLM + 10% dialyzed FBS, 46.1 µM | 9.86 | 13.8 | 18
RPMI 5 mM glucose + 10% FBS, 0.000781 µM | 80 | 87.3 | 83.1
RPMI 5 mM glucose + 10% FBS, 0.00234 µM | 96.3 | 91.6 | 98.3
RPMI 5 mM glucose + 10% FBS, 0.00702 µM | 88.7 | 90.8 | 115
RPMI 5 mM glucose + 10% FBS, 0.0211 µM | 87.8 | 86.1 | 104
RPMI 5 mM glucose + 10% FBS, 0.0632 µM | 86 | 87.1 | 114
RPMI 5 mM glucose + 10% FBS, 0.19 µM | 80.8 | 87.2 | 109
RPMI 5 mM glucose + 10% FBS, 0.569 µM | 92.2 | 91.5 | 106
RPMI 5 mM glucose + 10% FBS, 1.71 µM | 80.9 | 85.8 | 104
RPMI 5 mM glucose + 10% FBS, 5.12 µM | 94.2 | 87.1 | 77.4
RPMI 5 mM glucose + 10% FBS, 15.4 µM | 73.8 | 74 | 77.2
RPMI 5 mM glucose + 10% FBS, 46.1 µM | 31.8 | 47.2 | 17.1
RPMI 5 mM glucose + 10% dialyzed FBS, 0.000781 µM | 86.4 | 83.5 | 67.2
RPMI 5 mM glucose + 10% dialyzed FBS, 0.00234 µM | 81.3 | 90 | 92.6
RPMI 5 mM glucose + 10% dialyzed FBS, 0.00702 µM | 93.6 | 89.6 | 98.9
RPMI 5 mM glucose + 10% dialyzed FBS, 0.0211 µM | 105 | 88.3 | 92.5
RPMI 5 mM glucose + 10% dialyzed FBS, 0.0632 µM | 90.1 | 85.4 | 89.7
RPMI 5 mM glucose + 10% dialyzed FBS, 0.19 µM | 86.3 | 88.6 | 91.4
RPMI 5 mM glucose + 10% dialyzed FBS, 0.569 µM | 81.6 | 91.8 | 87.7
RPMI 5 mM glucose + 10% dialyzed FBS, 1.71 µM | 82.2 | 80.1 | 80.2
RPMI 5 mM glucose + 10% dialyzed FBS, 5.12 µM | 90.5 | 85.4 | 83.5
RPMI 5 mM glucose + 10% dialyzed FBS, 15.4 µM | 68.8 | 68.9 | 78.9
RPMI 5 mM glucose + 10% dialyzed FBS, 46.1 µM | 26.2 | 39.2 | 26.3

AUC of viability dose-response curve
Conditions | NOMO1 [5] | P12-Ichikawa [6] | SEM cells [4]
HPLM + 10% dialyzed FBS | 433 | 409 | 433
RPMI 5 mM glucose + 10% FBS | 397 | 405 | 434
RPMI 5 mM glucose + 10% dialyzed FBS | 398 | 395 | 397
